Test results from ChEMBL document CHEMBL1955741, “Identification of fused bicyclic heterocycles as potent and selective 5-HT(2A) receptor antagonists for the treatment of insomnia” (Bioorg Med Chem Lett, 2012).
Calls of active or inactive are those of the source. No cut-off for these calls is given here.

Columns and labels:
[1] = system: Rattus norvegicus; experiment: Total clearance in iv dosed rat; format: ADME, organism-based; settings: in vivo
[2] = system: Rattus norvegicus; experiment: Oral bioavailability in rat; format: ADME, organism-based; settings: in vivo
[3] = Plasma concentration in rat at 3 mg/kg after 0.75 hrs; format: ADME, organism-based; design: dose 3 mg/kg
[4] = system: Rattus norvegicus; experiment: Volume of distribution at steady state in […] rat; format: ADME, organism-based; settings: in vivo
[5] = Half life in po dosed rat; format: ADME, organism-based; settings: in vivo
[6] = system: Rattus norvegicus; experiment: Inhibition of DOI-induced hypolocomotion in rat at 3 mg/kg coadministered with DOI 10 mins prior testing; format: functional, organism-based; design: dose 3 mg/kg
[7] = target: 5-hydroxytryptamine receptor 2A (Homo sapiens, UniProt P28223)
5-hydroxytryptamine receptor 2A, sequence (P28223 whole entry): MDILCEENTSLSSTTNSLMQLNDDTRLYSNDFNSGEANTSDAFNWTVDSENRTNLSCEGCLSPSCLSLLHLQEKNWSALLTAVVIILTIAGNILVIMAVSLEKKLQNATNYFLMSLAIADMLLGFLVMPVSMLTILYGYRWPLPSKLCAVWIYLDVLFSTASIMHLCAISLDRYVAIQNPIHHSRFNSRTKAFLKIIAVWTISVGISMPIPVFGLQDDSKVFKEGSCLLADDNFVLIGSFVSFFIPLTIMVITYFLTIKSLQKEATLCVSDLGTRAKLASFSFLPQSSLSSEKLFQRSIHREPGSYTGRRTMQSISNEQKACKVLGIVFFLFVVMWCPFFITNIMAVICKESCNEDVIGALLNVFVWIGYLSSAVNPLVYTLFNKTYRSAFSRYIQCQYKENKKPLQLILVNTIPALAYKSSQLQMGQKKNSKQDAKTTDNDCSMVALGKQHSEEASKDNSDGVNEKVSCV
Description: Displacement of [125I]-DOI from recombinant human 5HT2A receptor

[8] = target: T1, 5-hydroxytryptamine receptor 2C (Homo sapiens, UniProt P28335)
T1 sequence (P28335 whole entry): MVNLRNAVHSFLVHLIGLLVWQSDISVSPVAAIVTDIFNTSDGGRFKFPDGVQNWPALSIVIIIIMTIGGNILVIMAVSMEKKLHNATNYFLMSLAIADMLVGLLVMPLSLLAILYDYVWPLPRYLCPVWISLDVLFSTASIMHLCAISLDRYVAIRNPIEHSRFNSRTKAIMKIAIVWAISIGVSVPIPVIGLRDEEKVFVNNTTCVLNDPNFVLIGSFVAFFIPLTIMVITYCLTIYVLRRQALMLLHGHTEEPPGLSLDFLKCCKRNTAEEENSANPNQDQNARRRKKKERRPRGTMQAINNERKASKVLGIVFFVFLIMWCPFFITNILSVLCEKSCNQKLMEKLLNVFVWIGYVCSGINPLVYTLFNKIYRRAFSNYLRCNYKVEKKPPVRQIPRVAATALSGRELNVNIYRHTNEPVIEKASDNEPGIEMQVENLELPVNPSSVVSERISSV

| Structure (SMILES) | Ki [7] [nM] | Ki [8] [nM] | other results |
| --- | --- | --- | --- |
| Cn1cc(Br)c(C(=O)N2CCN(CCc3ccc(F)cc3)CC2)n1 | – | – | clearance [1]: 155 mL/min/kg; bioavailability [2]: 9%; concentration at 0.75 h [3]: 8.3 ng/mL; Vdss [4]: 8.1 L/kg; half-life [5]: 1.4 h; Activity [6]: Active |
| N#Cc1cn2cccc(C(=O)N3CCN(CCc4ccc(F)cc4F)CC3)c2n1 | 2.8 | 6900 | – |
| O=C(c1cc2n(n1)CCCC2)N1CCN(CCc2ccc(F)cc2F)CC1 | 2.6 | 717 | – |
| O=C(c1cccn2cc(Cl)nc12)N1CCN(CCc2ccc(F)cc2F)CC1 | 1.5 | 391 | – |
| O=C(c1cc(Br)cn2ccnc12)N1CCN(CCc2ccc(F)cc2F)CC1 | 5 | 474 | – |

More lines, main results first:

| Ki [7] [nM] | Ki [8] [nM] | Structure (SMILES) | other results |
| --- | --- | --- | --- |
| 0.8 | 496 | O=C(c1nn2ccccc2c1Br)N1CCN(CCc2ccc(F)cc2F)CC1 | – |
| 3.5 | 997 | Cc1nc2ccccn2c1C(=O)N1CCN(CCc2ccc(F)cc2F)CC1 | – |
| 1.7 | 682 | O=C(c1cccn2cc(Br)nc12)N1CCN(CCc2ccc(F)cc2F)CC1 | – |
| 0.6 | 394 | O=C(c1nn2ccccc2c1Cl)N1CCN(CCc2ccc(F)cc2F)CC1 | – |
| 4.3 | 596 | O=C(c1cn2ccccc2n1)N1CCN(CCc2ccc(F)cc2F)CC1 | – |
| 3.8 | 910 | O=C(c1cnn2cccnc12)N1CCN(CCc2ccc(F)cc2F)CC1 | – |
| 2.7 | 190 | Nc1cccn2cc(C(=O)N3CCN(CCc4ccc(F)cc4F)CC3)nc12 | – |
